The record followed here is US20120204273A1, “COMPOSITIONS RELATING TO A PHOSPHOPROTEIN AND METHODS OF USE” (SANFORD-BURNHAM MEDICAL RESEARCH INSTITUTE, priority 2010, published 2012).

The subject of this test is 3T3-L1 adipocytes. In words: myc-GLUT4-GFP translocation to the cell surface. Format: cell-based, mouse. As to conditions: insulin 1 nM, 20 min. The procedure:
FIG. 2, panels A-C show knockdown of CDP138 in 3T3-L1 adipocytes inhibits insulin-stimulated glucose transport (A) and myc-GLUT4-GFP translocation (B), but not endogenous GLUT4 movement to the periphery detected in TIRF zone (C). (A): Differentiated adipocytes at day 5 were transfected with siRNAs against mouse 5730419I09Rik or the scrambled siRNA (Scr) as described earlier (Jiang et al., 2003) for 60 hrs, then serum starved overnight. Cells were then treated with or without insulin (1 nM and 100 nM) for 30 min for the glucose uptake assay, or 15 min for immunoblotting of CDP138, pAkt, Akt and β-actin. Glucose transport data are presented as mean±SD of 4 independent experiments. *P<0.05 vs Scr Insulin (1 nM) group; **P<0.01 vs Scr Insulin (100 nM) group. (B): Day 5 adipocytes were transfected with siRNAs and myc-GLUT4-GFP for 60 hrs and then serum starved overnight. Cells were then treated with insulin (1 nM) for 20 min. Cell surface Myc-GLUT4-GFP was detected with anti-myc monoclonal Ab (9E10) and Alexa Fluor 568-labeled goat anti-mouse IgG in non-permeablized cells. The Myc signal and GFP signal were quantified as previously described (Jiang et al., 2002). Data presented are representative microscopic images and mean±SD of about 160 GFP-positive cells in each group from three independent experiments. **P<0.01 vs Scr Insulin (1 nM) group. […] GLUT4 was detected with a goat anti-GLUT4 Ab and Alexa Fluor 488-conjugated donkey anti-goat Ab in permeabilized cells. Top and middle panels show 100 nm TIRF zone and representative GLUT4 TIRFM images, respectively. Data are mean±SD of 3 independent experiments. **P<0.01 vs Scr Insulin groups.
GLUT4 translocation detection with wide field fluorescence and TIRF microscopy: Both wide field and TIRF microscopy were used to detect myc-GLUT4-GFP translocation to the cell surface as previously described (Jiang et al., 2002) and herein.
To test the effect of RNAi-induced gene specific knockdown of CDP138 or overexpression of CDP138 mutants on GLUT4 translocation, siRNAs or CDP138 constructs were transfected into adipocytes together with myc-GLUT4-GFP by electroporation as previously described (Jiang et al, 2003). […] Cells were washed with cold PBS, fixed with 4% formaldehyde and immunostained. Briefly, for siRNA study, the cell surface Myc-GLUT4-GFP was visualized with mouse anti-Myc Ab (9E10) and AlexaFluoro568-labeled goat anti-mouse secondary Ab (Invitrogen) in PBS containing 1% FBS. After washing, the coverslip were mounted with Prolong antifade reagent (Invitrogen, Eugene Oreg.). Fluorescence microscopy was carried as described below. Then, images were acquired with wide field microscopy as described below. For the study with overexpressed HAtagged CDP138 constructs, the cell surface Myc-GLUT4-GFP was visualized with rabbit anti-Myc Ab (Cell signaling, Inc) and AlexaFluoro568-labeled goat anti-rabbit secondary Ab (InVitrogen) in PBS containing 1% FBS. Cells were further permeabilized with PSB containing 0.5% Tween-20, and HA-tagged protein was detected with a mouse anti-HA epitope primary Ab followed by AlexaFluoro-350-labelled goat anti-mouse IgG. Insulin-induced myc-GLUT4 accumulation (AlexaFluoro-568 signal) within the evanescence excitation field (100 nm from dorsal membrane) in transfected adipocytes was measured with a Nikon Eclipse-Ti microscope equipped with a CoolSNAP HQ2 camera and laser scanning TIRF capacity. Total GLUT4-GFP signals and […] Alexa Fluoro-350 signals were acquired with wide field imaging to identify double-transfected cells. The ratio of myc-GLUT4 signal in the TIRF zone to the total Epi-GFP signal in wide field was used as a measure of GLUT4 translocation to the cell surface.
Image Analysis and Quantification: TIRF and wide field fluorescence microscopy were performed using a Nikon inverted microscope (Melville, N.Y.) with a cooled charge-coupled device camera. […]

For the substance insulin, the “increase in GLUT4 translocation (cell surface myc / total GFP)” value was 3 fold.
